Laboratory results: US11958812B2, “3, 5-disubstituted pyridine and 3, 5-disubstituted pyridazine derivatives and pharmaceutical use of same” (MITSUBISHI TANABE PHARMA CORPORATION, priority 2018, dated 2024)

Legend:
human recombinant ATX = human recombinant ATX (Homo sapiens, UniProt Q13822); test: Enzyme inhibition test (choline release from LPC, Amplex UltraRed fluorescence); type: biochemical; conditions: 200 μM LPC substrate, 1 hr at room temperature, read-out: Experimental Example 1 human ATX IC50
In short: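 Recombinant human ATX (enzyme solution 0.4 ng/µL) acted on a mix of 200 µM LPC, Amplex UltraRed, peroxidase and choline oxidase in Tris pH 8.0 buffer with BSA and 0.0025% Triton X-100, 1 h at room temperature. Choline was read by fluorescence (Ex 525/Em 598 nm) against a choline chloride standard. IC50 came from % inhibition relative to enzyme-free and inhibitor-free controls.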

ATX activity in plasma [1] = target: T1, ATX activity in plasma (Rattus norvegicus, UniProt Q64610); test: Measurement of ATX activity in plasma (ex vivo), rat single administration test; design: species or system male Wistar rat
T1 construct: from tissue; host or cells: plasma of male Wistar rats after oral dosing

ATX activity in plasma [2] = target: T2, ATX activity in plasma (Mus musculus, UniProt Q9R1E6); test: ATX activity in plasma in the mouse bleomycin-induced lung fibrosis model; type: in vivo, female C57BL/6J mouse; conditions: 30 mg/kg, bid, oral, 14 days; FIG. 5
T2 construct: from tissue; host or cells: plasma of female C57BL/6J mice (bleomycin-induced lung fibrosis model)
Description: A compound administration solution prepared by wet pulverization in a mixer mill (type: MM400) for 10 min and adjusting to a given concentration with 0.5% aqueous carboxymethylcellulose solution was orally administered to male Wistar rat (5-week-old when used) at 5 mL/kg. Blood samples were collected from the cervical vein over time at 8 to 24 hr after administration. The blood was heparin-treated using a micro blood collection tube Capiject (CJ-AL, TERUMO CORPORATION), and the plasma was separated by centrifugation (4° C., 12,000 rpm, for 2 min), and preserved at −80° C. […] The measurement of ATX activity in plasma was evaluated using the concentration of choline in the plasma, which was liberated from lysophosphatidylcholine (substrate of ATX) by the lysophospholipase D activity of ATX, as an index. […] The reaction mixture (10 μL) after reaction for 6 hr and 45 μL of reagent R^1 solution (100 mM Tris-HCl pH 8.0, 0.5 mM TOOS, 10 U/mL peroxidase, 0.01% Triton X-100) were added and blended and absorbance at 550-700 nm was measured and used as a prevalue. […] 1 mM choline chloride was diluted with 2× assay buffer up to 7 steps in 2-fold serial dilution, R^1 solution was treated similarly and the absorbance was measured. […]
At 14 days from the bleomycin administration, plasma, BALF and lung tissue were collected. BALF was recovered and the concentration of LPA (18:2) in BALF (FIG. 6) was measured. […]

COc1ccc(-c2cnnc(OC[C@H]3CC[C@H](C(F)(F)F)CC3)c2)nc1[C@H]1C[C@@H]1C(=O)O [Example 5, (1S,2S)-2-[3-methoxy-6-(6-{[trans-4-(trifluoromethyl)cyclohexyl]methoxy}pyridazin-4-yl)pyridin-2-yl]cyclopropanecarboxylic Acid]
IC50 (human recombinant ATX): 1 nM
Experimental Example 2 Rat single administration test (inhibitory activity (%) 8 hr after 1 mg/kg oral administration) (ATX activity in plasma [1]): 92%
ATX activity in the plasma (ATX activity in plasma [2]): suppressed ATX activity in the plasma completely
